Here are results for ten compounds from patent US20150150253A1, “CROP ENHANCEMENT COMPOSITIONS” (Syngenta Participations AG, priority 2012, published 2015).

One assay deals with Pythium ultimum. The assay can be described thus: Pythium ultimum / liquid culture (seedling damping off), well plate mixture test. It counts as cell-based.
Another assay deals with Gaeumannomyces graminis. The assay can be described thus: Gaeumannomyces graminis / liquid culture (take-all of cereals), well plate mixture test. It counts as cell-based.
Another assay concerns Ustilago nuda. The assay can be described thus: Ustilago nuda / liquid culture (barley loose smut), well plate mixture test. It counts as cell-based.
Assay [1] deals with Monographella nivalis (Microdochium nivale). The assay can be described thus: Monographella nivalis (Microdochium nivale) / liquid culture (foot rot cereals), well plate mixture test. It counts as cell-based.
Another assay concerns Fusarium culmorum. The assay can be described thus: microbe, parasite or virus in culture. It counts as cell-based. To be noted: read-out: % efficacy observed.
For assay [2], the system named is Thanatephorus cucumeris (Rhizoctonia solani).
Text: A synergistic effect exists whenever the action of an active ingredient combination is greater than the sum of the actions of the individual components.
ppm=milligrams of active ingredient (=a.i.) per liter of spray mixture X=% action by active ingredient A) using p ppm of active ingredient Y=% action by active ingredient B) using q ppm of active ingredient. According to COLBY, the expected (additive) action of active ingredients A)+B) using p+q ppm of active ingredient is
If the action actually observed (O) is greater than the expected action (E), then the action of the combination is super-additive, i.e. there is a synergistic effect. In mathematical terms, synergism corresponds to a positive value for the difference of (O-E). In the case of purely complementary addition of activities (expected activity), said difference (O-E) is zero. A negative value of said difference (O-E) signals a loss of activity compared to the expected activity.
Method Description Liquid Culture Tests in Well Plates for Mixtures
Thanatephorus cucumeris (Rhizoctonia solani)/Liquid Culture (Foot Rot, Damping-Off)
Mycelia fragments of a newly grown liquid culture of the fungus are directly mixed into nutrient broth (PDB potato dextrose broth). After placing a (DMSO) solution of the test compounds into a microtiter plate (96-well format), the nutrient broth containing the fungal material is added. The test plates are incubated at 24° C. and the inhibition of growth is determined photometrically 3-4 days after application and percent antifungal activity relative to the untreated check is calculated.
Setting [3] is: Thanatephorus cucumeris, read-out: % efficacy observed.

Several values for one entry are separate records, joined by “and”; a condition that tells them apart may be missing. Identical values can stand only once. Like-named read-outs stand apart in the source and are kept apart here.

As to `CO/C=C(/C(=O)OC)c1ccccc1Oc1cc(Oc2ccccc2C#N)ncn1` [Azoxystrobin, azoxystrobin], the “% efficacy observed” value in the assay on Pythium ultimum (Azoxystrobin 0.0250 mg ai/l) was 14.0%; in the assay on Pythium ultimum (Azoxystrobin 0.0500 mg ai/l) it was 35.6%; in the assay on Pythium ultimum (Azoxystrobin 0.1000 mg ai/l), 45.3%; with Gaeumannomyces graminis (Azoxystrobin 0.0008 mg ai/l), 40.7%; in the assay with Gaeumannomyces graminis (Azoxystrobin 0.0016 mg ai/l), 67.0%; in the assay with Gaeumannomyces graminis (Azoxystrobin 0.0031 mg ai/l), 74.8%.
As for `COc1ccc(CC(=O)N(O)Cc2ccc(F)cc2)cc1` [Compound D4], the Emax at 0.0391 µg/mL with Pythium ultimum (Globisporangium ultimum, D4 0.0391 mg ai/l, read-out: % efficacy observed) stood at 0%. The Emax at 0.1563 µg/mL in the assay with Pythium ultimum (Globisporangium ultimum, D4 0.1563 mg ai/l, read-out: % efficacy observed) amounted to 0%; in the assay with Gaeumannomyces graminis (Gaeumannomyces graminis, D4 0.1563 mg ai/l, read-out: % efficacy observed), 0%; in assay [1] (Monographella nivalis, D4 0.1563 mg ai/l, read-out: % efficacy observed), 6.7%; in assay [2] (Thanatephorus cucumeris, read-out: % efficacy observed, D4 0.1563 mg ai/l), 0%. Further, the Emax at 0.3125 µg/mL in the assay on Pythium ultimum (Globisporangium ultimum, D4 0.3125 mg ai/l, read-out: % efficacy observed) was determined as 0%; with Gaeumannomyces graminis (Gaeumannomyces graminis, D4 0.3125 mg ai/l, read-out: % efficacy observed), 0%; with Ustilago nuda (Ustilago nuda, D4 0.3125 mg ai/l, read-out: % efficacy observed), 0%; in assay [1] (Monographella nivalis, D4 0.3125 mg ai/l, read-out: % efficacy observed), 10.2%. Also, the Emax at 0.625 µg/mL worked out at 0% with Pythium ultimum (Globisporangium ultimum, D4 0.6250 mg ai/l, read-out: % efficacy observed); 0% with Gaeumannomyces graminis (Gaeumannomyces graminis, D4 0.6250 mg ai/l, read-out: % efficacy observed); 0% in the assay with Ustilago nuda (Ustilago nuda, D4 0.6250 mg ai/l, read-out: % efficacy observed); 0% in assay [1] (Monographella nivalis, D4 0.6250 mg ai/l, read-out: % efficacy observed). Besides, the Emax at 1.25 µg/mL in the assay on Pythium ultimum (Globisporangium ultimum, D4 1.2500 mg ai/l, read-out: % efficacy observed) came to 0%; with Gaeumannomyces graminis (Gaeumannomyces graminis, D4 1.2500 mg ai/l, read-out: % efficacy observed) it was 0%; in the assay on Ustilago nuda (Ustilago nuda, D4 1.2500 mg ai/l, read-out: % efficacy observed), 0%. Further, the Emax at 2.5 µg/mL was determined as 0% in the assay on Pythium ultimum (Globisporangium ultimum, D4 2.5000 mg ai/l, read-out: % efficacy observed); 0% in the assay on Gaeumannomyces graminis (Gaeumannomyces graminis, D4 2.5000 mg ai/l, read-out: % efficacy observed); 7% in the assay with Ustilago nuda (Ustilago nuda, D4 2.5000 mg ai/l, read-out: % efficacy observed); 2.8% in assay [1] (Monographella nivalis, D4 2.5000 mg ai/l, read-out: % efficacy observed). The “% efficacy observed” value with Gaeumannomyces graminis (D4 0.000000 mg ai/l) was 5.3%; in the assay on Ustilago nuda (D4 0.0391 mg ai/l), 8.7%; with Ustilago nuda (D4 0.0781 mg ai/l), 2.5% and 0.2%; in the assay with Ustilago nuda (D4 0.1563 mg ai/l), 3.7%; in assay [2] (D4 0.6250 mg ai/l), 2.1% and 4.6%. Also, the Emax at 0.0781 µg/mL in the assay with Gaeumannomyces graminis (Gaeumannomyces graminis, D4 0.0781 mg ai/l, read-out: % efficacy observed) is 0%; in assay [2] (Thanatephorus cucumeris, read-out: % efficacy observed, D4 0.0781 mg ai/l) it was 0%. The Emax at 5 µg/mL in the assay on Gaeumannomyces graminis (Gaeumannomyces graminis, D4 5.0000 mg ai/l, read-out: % efficacy observed) amounted to 0%; in assay [1] (Monographella nivalis, D4 5.0000 mg ai/l, read-out: % efficacy observed) it was 2.1%. For the same compound, the Emax at 10 µg/mL with Gaeumannomyces graminis (Gaeumannomyces graminis, D4 10.0000 mg ai/l, read-out: % efficacy observed) worked out at 0%; in assay [1] (Monographella nivalis, D4 10.0000 mg ai/l, read-out: % efficacy observed), 6.4%; with Fusarium culmorum it was 0%. The Emax at 20 µg/mL was 0% with Gaeumannomyces graminis (Gaeumannomyces graminis, D4 20.0000 mg ai/l, read-out: % efficacy observed); 1.3% in the assay on Ustilago nuda (Ustilago nuda, D4 20.0000 mg ai/l, read-out: % efficacy observed); 1.4% in assay [1] (Monographella nivalis, D4 20.0000 mg ai/l, read-out: % efficacy observed); 0% in the assay on Fusarium culmorum; 0% in assay [2] (Thanatephorus cucumeris, read-out: % efficacy observed, D4 20.0000 mg ai/l).
Consider `CC1COC(Cn2cncn2)(c2ccc(Oc3ccc(Cl)cc3)cc2Cl)O1` (stereo not shown) [Difenconazole], for which the Emax at 0.5 µg/mL amounted to 0% in the assay with Gaeumannomyces graminis (Gaeumannomyces graminis, Difenconazole 0.5000 mg ai/l, read-out: % efficacy observed); 30% with Ustilago nuda (Ustilago nuda, Difenconazole 0.5000 mg ai/l, read-out: % efficacy observed); 0% in assay [2] (Thanatephorus cucumeris, read-out: % efficacy observed, Difenconazole 0.5000 mg ai/l). Moreover, the Emax at 1 µg/mL in the assay on Gaeumannomyces graminis (Gaeumannomyces graminis, Difenconazole 1.0000 mg ai/l, read-out: % efficacy observed) turned out to be 10.6%; in the assay on Ustilago nuda (Ustilago nuda, Difenconazole 1.0000 mg ai/l, read-out: % efficacy observed), 45.9%; in assay [2] (Thanatephorus cucumeris, read-out: % efficacy observed, Difenconazole 1.0000 mg ai/l), 0%. The Emax at 2 µg/mL with Gaeumannomyces graminis (Gaeumannomyces graminis, Difenconazole 2.0000 mg ai/l, read-out: % efficacy observed) was found to be 39%; in the assay on Ustilago nuda (Ustilago nuda, Difenconazole 2.0000 mg ai/l, read-out: % efficacy observed), 60.5%.
On to `N#Cc1c[nH]cc1-c1cccc2c1OC(F)(F)O2` [Fludioxonyl], for which the Emax at 0.0313 µg/mL in the assay on Ustilago nuda (Ustilago nuda, read-out: % efficacy observed) worked out at 33.1%. Moreover, in assay [2] (setting [3]), the Emax at 0.125 µg/mL worked out at 13.8%, the Emax at 0.25 µg/mL was determined as 66.5%, the Emax at 0.5 µg/mL stood at 60.5% and the Emax at 1 µg/mL is 86.8%.
For the compound `Cn1cc(C(=O)Nc2ccccc2-c2cc(F)c(F)c(F)c2)c(C(F)F)n1` [Fluxapyroxad, fluxapyroxad], the “% efficacy observed” value in assay [1] (Fluxapyroxad 0.1875 mg ai/l) was found to be 22.2%; in assay [1] (Fluxapyroxad 0.3750 mg ai/l) it was 55.5%; in assay [1] (Fluxapyroxad 0.7500 mg ai/l), 65.4%; in assay [2] (Fluxapyroxad 0.1875 mg ai/l), 29.7%; in assay [2] (Fluxapyroxad 0.3750 mg ai/l), 61.8%; in assay [2] (Fluxapyroxad 0.7500 mg ai/l), 71.9%. In addition, the “% efficacy observed” value in assay [2] (Fluxapyroxad 1.5000 mg ai/l) amounted to 67.9%.
With `COCC(=O)N(c1c(C)cccc1C)[C@H](C)C(=O)OC` [Mefenoxam, mefenoxam], the “% efficacy observed” value is 34.1% in the assay on Pythium ultimum (Mefenoxam 0.0078 mg ai/l); 37.8% in the assay on Pythium ultimum (Mefenoxam 0.0156 mg ai/l); 70.2% in the assay on Pythium ultimum (Mefenoxam 0.0313 mg ai/l); 71.3% in the assay on Pythium ultimum (Mefenoxam 0.0625 mg ai/l); 84.4% in the assay with Pythium ultimum (Mefenoxam 0.1250 mg ai/l).
On to `Cc1nn(C)c(F)c1C(=O)Nc1ccccc1C(C)CC(C)C` (stereo not shown) [Penflufen, penflufen], for which the “% efficacy observed” value in the assay on Ustilago nuda (Penflufen 0.0039 mg ai/l) came out at 23.1%; in assay [1] (Penflufen 1.0000 mg ai/l), 19.4%; in assay [1] (Penflufen 2.0000 mg ai/l), 56.8%; in assay [2] (Penflufen 0.0156 mg ai/l), 20.8%; in assay [2] (Penflufen 0.0313 mg ai/l) it was 7.5%; in assay [2] (Penflufen 0.0625 mg ai/l) it was 42.0%. The “% efficacy observed” value in assay [2] (Penflufen 0.1250 mg ai/l) is given as 64.3%; in assay [2] (Penflufen 0.2500 mg ai/l), 83.3%.
Consider `Cn1cc(C(=O)Nc2ccccc2C2CC2C2CC2)c(C(F)F)n1` (stereo not shown) [Sedaxane, sedaxane], for which the “% efficacy observed” value came out at 46.7% in the assay on Gaeumannomyces graminis (Sedaxane 1.5000 mg ai/l); 55.0% in the assay with Ustilago nuda (Sedaxane 0.0117 mg ai/l); 0.0% in assay [2] (Sedaxane 0.0469 mg ai/l); 41.1% in assay [2] (Sedaxane 0.0938 mg ai/l); 71.1% in assay [2] (Sedaxane 0.1875 mg ai/l); 72.2% in assay [2] (Sedaxane 0.3750 mg ai/l). The “% efficacy observed” value in assay [2] (Sedaxane 0.7500 mg ai/l) was 72.2%.
Turning to `CC(C)(C)C(O)(CCc1ccc(Cl)cc1)Cn1cncn1` (stereo not shown) [Tebuconazole, tebuconazole], the Emax at 0.25 µg/mL in the assay with Gaeumannomyces graminis (Gaeumannomyces graminis, Tebuconazole 0.2500 mg ai/l, read-out: % efficacy observed) was 43.5%. The Emax at 0.5 µg/mL with Gaeumannomyces graminis (Gaeumannomyces graminis, Tebuconazole 0.5000 mg ai/l, read-out: % efficacy observed) was 47.5%. In addition, the Emax at 1 µg/mL in the assay with Gaeumannomyces graminis (Gaeumannomyces graminis, Tebuconazole 1.0000 mg ai/l, read-out: % efficacy observed) worked out at 61%; in assay [2] (Thanatephorus cucumeris, read-out: % efficacy observed, Tebuconazole 1.0000 mg ai/l), 0%. Besides, the Emax at 2 µg/mL in the assay with Gaeumannomyces graminis (Gaeumannomyces graminis, Tebuconazole 2.0000 mg ai/l, read-out: % efficacy observed) was 74%; in assay [2] (Thanatephorus cucumeris, read-out: % efficacy observed, Tebuconazole 2.0000 mg ai/l) it was 0%.
Consider `c1ccc2[nH]c(-c3cscn3)nc2c1` [Thiabendazole, thiabendazole], for which, in the assay with Fusarium culmorum, the Emax at 3 µg/mL was 45.3% and the Emax at 6 µg/mL was found to be 71.7%.
